Values after ≈ are worked out from the molar mass of the structure shown.

As usually defined, the MIC is the least concentration at which growth counts as inhibited.

Common to all, as to assay type: functional
The test system of one experiment is Acinetobacter baumannii. Kind of experiment: Antibacterial activity against Acinetobacter baumannii BAA 1605 assessed as reduction in bacterial growth measured after 18 to 24 hrs by broth microdilution method. To be noted: time 18-24 hrs.
For a further experiment, the system named is Escherichia coli. Kind of experiment: Antibacterial activity against Escherichia coli ATCC 25922 assessed as reduction in bacterial growth measured after 18 to 24 hrs by broth microdilution method. The settings on record: time 18-24 hrs. (In broth dilution the organism is exposed to a series of concentrations in liquid medium.)
For another experiment, the system named is Klebsiella pneumoniae. Kind of experiment: Antibacterial activity against Klebsiella pneumoniae BAA 1705 assessed as reduction in bacterial growth measured after 18 to 24 hrs by broth microdilution method. The settings on record: time 18-24 hrs.
In another experiment the test system is Bacillus subtilis. Kind of experiment: Antibacterial activity against Bacillus subtilis IITKSM1 assessed as reduction in bacterial growth measured after 18 to 24 hrs by broth microdilution method. The settings on record: time 18-24 hrs.
The subject of experiment [1] is Staphylococcus aureus. Kind of experiment: Antibacterial activity against Staphylococcus aureus ATCC 29213 assessed as reduction in bacterial growth measured after 18 to 24 hrs by broth microdilution method. The settings on record: time 18-24 hrs.
A further experiment deals with Pseudomonas aeruginosa. Kind of experiment: Antibacterial activity against Pseudomonas aeruginosa ATCC 27853 assessed as reduction in bacterial growth measured after 18 to 24 hrs by broth microdilution method. To be noted: time 18-24 hrs.
The subject of a further experiment is Enterococcus faecalis. Kind of experiment: Antibacterial activity against Enterococcus faecalis ATCC 35550 assessed as reduction in bacterial growth measured after 18 to 24 hrs by broth microdilution method. The settings on record: time 18-24 hrs.
The test system of experiment [2] is Staphylococcus aureus. In words: Antibacterial activity against Staphylococcus aureus assessed as reduction in bacterial growth.
For experiment [3], the system named is Staphylococcus aureus. In words: Antibacterial activity against vacomycin-resistant Staphylococcus aureus VRS 1 assessed as reduction in bacterial growth measured after 18 to 24 hrs by broth microdilution method. The settings on record: time 18-24 hrs.
The subject of experiment [4] is Staphylococcus aureus. Kind of experiment: Antibacterial activity against vacomycin-resistant Staphylococcus aureus VRS 4 assessed as reduction in bacterial growth measured after 18 to 24 hrs by broth microdilution method. The settings on record: time 18-24 hrs.
For experiment [5], the system named is Staphylococcus aureus. In words: Antibacterial activity against methicillin-resistant Staphylococcus aureus NRS 119 assessed as reduction in bacterial growth measured after 18 to 24 hrs by broth microdilution method. To be noted: time 18-24 hrs.
Experiment [6] deals with Staphylococcus aureus. In words: Antibacterial activity against methicillin-resistant Staphylococcus aureus NRS 100 assessed as reduction in bacterial growth measured after 18 to 24 hrs by broth microdilution method. The settings on record: time 18-24 hrs.
In experiment [7] the test system is Staphylococcus aureus. Kind of experiment: Antibacterial activity against methicillin-resistant Staphylococcus aureus NRS 129 assessed as reduction in bacterial growth measured after 18 to 24 hrs by broth microdilution method. To be noted: time 18-24 hrs.
Experiment [8] relates to Staphylococcus aureus. In words: Antibacterial activity against vacomycin-resistant Staphylococcus aureus VRS 12 assessed as reduction in bacterial growth measured after 18 to 24 hrs by broth microdilution method. To be noted: time 18-24 hrs.
Experiment [9] has as its system Staphylococcus aureus. In words: Antibacterial activity against methicillin-resistant Staphylococcus aureus NRS 193 assessed as reduction in bacterial growth measured after 18 to 24 hrs by broth microdilution method. To be noted: time 18-24 hrs.
Experiment [10] relates to Staphylococcus aureus. Kind of experiment: Antibacterial activity against methicillin-resistant Staphylococcus aureus NRS 192 assessed as reduction in bacterial growth measured after 18 to 24 hrs by broth microdilution method. To be noted: time 18-24 hrs.
In experiment [11] the test system is Staphylococcus aureus. In words: Antibacterial activity against methicillin-resistant Staphylococcus aureus NRS 194 assessed as reduction in bacterial growth measured after 18 to 24 hrs by broth microdilution method. The settings on record: time 18-24 hrs.
Experiment [12] concerns Staphylococcus aureus. In words: Antibacterial activity against methicillin-resistant Staphylococcus aureus NRS 186 assessed as reduction in bacterial growth measured after 18 to 24 hrs by broth microdilution method. To be noted: time 18-24 hrs.
The test system of experiment [13] is Staphylococcus aureus. In words: Antibacterial activity against methicillin-resistant Staphylococcus aureus NRS 191 assessed as reduction in bacterial growth measured after 18 to 24 hrs by broth microdilution method. The settings on record: time 18-24 hrs.
In experiment [14] the test system is Staphylococcus aureus. Kind of experiment: Antibacterial activity against methicillin-resistant Staphylococcus aureus NRS 198 assessed as reduction in bacterial growth measured after 18 to 24 hrs by broth microdilution method. To be noted: time 18-24 hrs.
For experiment [15], the system named is Staphylococcus aureus. In words: Antibacterial activity against methicillin-sensitive Staphylococcus aureus ATCC 29213 assessed as reduction in bacterial growth measured after 18 to 24 hrs by broth microdilution method. The settings on record: time 18-24 hrs.

`O=C(O)c1cccc(C(=O)Nc2c(C(c3ccccc3)c3ccccc3)cc([N+](=O)[O-])cc2C(c2ccccc2)c2ccccc2)c1`: the MIC with Acinetobacter baumannii is over 64 µg/mL; in the experiment on Escherichia coli, over 64 µg/mL; with Klebsiella pneumoniae, over 64 µg/mL; with Bacillus subtilis, 4 µg/mL (≈ 6.47 µM); in the experiment with Staphylococcus aureus [1] it was 4 µg/mL (≈ 6.47 µM); with Pseudomonas aeruginosa, over 64 µg/mL. In the experiment with Enterococcus faecalis, the MIC was 8 µg/mL (≈ 12.9 µM).

Turning to `O=C(O)c1cccc(C(=O)Nc2c(C(c3ccccc3)c3ccccc3)cc(Br)cc2C(c2ccccc2)c2ccccc2)c1`, the MIC in the experiment with Acinetobacter baumannii was over 64 µg/mL; in the experiment on Escherichia coli, over 64 µg/mL; with Klebsiella pneumoniae, over 64 µg/mL; in the experiment on Bacillus subtilis it was 2 µg/mL (≈ 3.06 µM); with Staphylococcus aureus [1] it was 4 µg/mL (≈ 6.13 µM); in the experiment on Pseudomonas aeruginosa, over 64 µg/mL. Also, the MIC with Enterococcus faecalis amounted to 2 µg/mL (≈ 3.06 µM).

Consider `O=C(O)c1cccc(C(=O)Nc2c(C(c3ccccc3)c3ccccc3)cc(OC(F)(F)F)cc2C(c2ccccc2)c2ccccc2)c1`, for which the MIC in the experiment on Acinetobacter baumannii was over 64 µg/mL; in the experiment on Escherichia coli it was over 64 µg/mL; in the experiment on Klebsiella pneumoniae it was over 64 µg/mL; with Bacillus subtilis, 2 µg/mL (≈ 3.04 µM); with Staphylococcus aureus [1] it was 2 µg/mL (≈ 3.04 µM); in the experiment on Pseudomonas aeruginosa it was over 64 µg/mL. Further, in the experiment on Enterococcus faecalis, the MIC is 2 µg/mL (≈ 3.04 µM).

In the case of `C#CCOc1ccccc1-c1ccc(-c2ccc(-c3ccccc3OCc3cn(CC(=O)N[C@@H](CCCNC(=N)N)C(=O)N[C@@H](CCCNC(=N)N)C(=O)N[C@@H](CCCNC(=N)N)C(N)=O)nn3)cc2)cc1`, the MIC with Staphylococcus aureus [2] is 3.83 µg/mL (≈ 3.9 µM).

Regarding `Cc1cc(C(c2ccccc2)c2ccccc2)c(NC(=O)c2cccc(C(=O)O)c2)c(C(c2ccccc2)c2ccccc2)c1`, the MIC in the experiment on Acinetobacter baumannii was over 64 µg/mL; in the experiment on Escherichia coli, over 64 µg/mL; in the experiment on Klebsiella pneumoniae, over 64 µg/mL; in the experiment on Bacillus subtilis, 64 µg/mL (≈ 109 µM); with Staphylococcus aureus [1] it was 4 µg/mL (≈ 6.81 µM); in the experiment with Pseudomonas aeruginosa, over 64 µg/mL. In addition, in the experiment with Enterococcus faecalis, the MIC amounted to 64 µg/mL (≈ 109 µM).

As to `CC(c1ccccc1)c1cc(Cl)cc(C(C)c2ccccc2)c1NC(=O)c1cccc(C(=O)O)c1` (configuration not stated), the MIC in the experiment on Acinetobacter baumannii, in the experiment with Escherichia coli, with Klebsiella pneumoniae, with Bacillus subtilis, in the experiment with Staphylococcus aureus [1] and in the experiment with Pseudomonas aeruginosa was over 64 µg/mL in each case. Moreover, the MIC in the experiment with Enterococcus faecalis was over 64 µg/mL.

For the molecule `N=C(N)NCCC[C@H](NC(=O)[C@H](CCCNC(=N)N)NC(=O)[C@H](CCCNC(=N)N)NC(=O)Cn1cc(COc2ccccc2-c2ccc(-c3ccc(-c4ccccc4OCc4cn(CC(=O)N[C@@H](CCCNC(=N)N)C(=O)N[C@@H](CCCNC(=N)N)C(=O)N[C@@H](CCCNC(=N)N)C(N)=O)nn4)cc3)cc2)nn1)C(N)=O`, in the experiment on Staphylococcus aureus [2], the MIC is 6.05 µg/mL (≈ 3.9 µM).

As to `CN(C)c1ccc(O)c2c1C[C@H]1C[C@H]3[C@H](N(C)C)C(O)=C(C(N)=O)C(=O)[C@@]3(O)C(O)=C1C2=O` [MINOCYCLINE], the MIC in the experiment with Staphylococcus aureus [3] was over 64 µg/mL; in the experiment on Staphylococcus aureus [4], over 64 µg/mL; in the experiment with Staphylococcus aureus [5] it was over 64 µg/mL; in the experiment on Staphylococcus aureus [6], over 64 µg/mL; in the experiment with Staphylococcus aureus [7] it was 8 µg/mL (≈ 17.5 µM); in the experiment with Staphylococcus aureus [8] it was 16 µg/mL (≈ 35 µM). Besides, the MIC with Staphylococcus aureus [9] was over 64 µg/mL; with Staphylococcus aureus [10], 32 µg/mL (≈ 69.9 µM); in the experiment on Staphylococcus aureus [11], 2 µg/mL (≈ 4.37 µM); in the experiment on Staphylococcus aureus [12] it was 8 µg/mL (≈ 17.5 µM); with Staphylococcus aureus [13], 64 µg/mL (≈ 140 µM); in the experiment on Staphylococcus aureus [14] it was 64 µg/mL (≈ 140 µM). Moreover, the MIC in the experiment on Staphylococcus aureus [15] was 0.25 µg/mL (≈ 0.546 µM).

On to `O=C(Nc1ccccc1)c1cc(Cl)ccc1O`, for which the MIC with Staphylococcus aureus [2] is at least 2.47 µg/mL.

As to `NCCCC[C@H](N)C(=O)N[C@@H](Cc1ccccc1)CN(CC(=O)NCC12CC3CC(CC(C3)C1)C2)C(=O)CC12CC3CC(CC(C3)C1)C2`, the MIC in the experiment with Staphylococcus aureus [2] was found to be 1.56 µg/mL (≈ 2.36 µM).

The values above are taken from ChEMBL document CHEMBL6177993, “De Novo 3-(Phenylcarbamoyl) Benzoate Analogues: Efficacy against Multidrug-Resistant S. aureus and Elucidation of the Biodistribution Profile” (J Med Chem, 2025).
